Test results from patent US10731187B2, “Recombinant strain producing O-aminobenzoate and fermentative production of aniline from renewable resources via 2-aminobenzoic acid” (Covestro Deutschland AG, priority 2014, dated 2020).

Key:
[1] = cited from earlier work
[2] = molecular target: T1, E. coli TrpEG (anthranilate synthase) variant TrpEGS40R, mutation S40R (SEQ ID NO: 52; SEQ ID No. 50-51) (Escherichia coli, UniProt P00895); experiment: Anthranilate synthase activity in cell lysate of C. glutamicum ΔtrpD/pEKEx2-trpEG^S40R (KM and vmax); assay type: biochemical; details: raw extract (cell lysate), 25 °C, 20 mM L-glutamine, 10 mM MgCl2
T1 construct: S40R lies in TrpE
Description: In more specific embodiments of the recombinant microbial host cell of invention, the Corynebacterium glutamicum microbial host cell, preferably Corynebacterium glutamicum ATCC 13032, can further overexpress one or more of the genes selected from the group consisting of galP (SEQ ID NO: 30), iolT2 (SEQ ID NO: 31), ppgk (SEQ ID NO: 32), pps (SEQ ID NO: 33-35), ppk (SEQ ID NO: 36), zwfl (SEQ ID NO: 37), opcA (SEQ ID NO: 38-39), tktCg (SEQ ID NO: 40), tktEc (SEQ ID NO: 41), talCg (SEQ ID NO: 42), tame (SEQ ID NO: 43), a gene encoding TrpEGS38F (trpEG^S38F, SEQ ID NO: 50), a gene encoding TrpEGS38R (trpEG^S38R, SEQ ID NO: 51), a gene encoding TrpEGS40R (trpEG^S40R, SEQ ID NO: 52), a gene encoding TrpEGS40F (trpEG^S40F, SEQ ID NO: 53), the gene encoding AroGD146N (aroG^D146N, SEQ ID NO: 55), aroL of Escherichia coli LJ110 (SEQ ID NO: 93), aroK (SEQ ID NO: 94), glnA (SEQ ID NO: 95), and qsuA (SEQ ID NO: 96). […]

[3] = test system: Corynebacterium glutamicum; experiment: Growth (OD600) in shake flask cultures supplemented with toxic substances; assay type: cell-based, Corynebacterium glutamicum DSM 20300 (=ATCC 13032); details: 3 g/L, pH 7 (MOPS), 25 h
Description: (§1) Several strains commonly used industrial biotechnology were investigated regarding their natural tolerance towards oAB and to organic solvents in question for later product extraction (e.g. 1-dodecanol or octanol). Furthermore, the influence of the used pH value was investigated. It was known from previous experiments that at least for E. coli the toxicity of aromatic compounds depends strongly on the pH value, probably because protonated acids can much more efficiently penetrate the cell membrane and accordingly their toxicity rises severely. The extraction of oAB in an organic phase is supposed to work best at low pH values, close to the isoelectric point of oAB. The most relevant host strains considered were: Escherichia coli K12, Corynebacterium glutamicum DSM 20300 (=ATCC 13032), Pseudomonas putida KT2440, Bacillus subtilis subsp. 168, Saccharomyces cerevisiae DSM 70449, and Pichia pastoris X33 (DSM 70382).
(§2) To investigate the chosen strains towards the mentioned characteristics shake flasks and small scale fermentation experiments were performed and the organisms were supplemented with the toxic substances (aminobenzoates, solvents) at differed concentrations, different pH values, and the behaviour of the strains was studied. […]

[4] = test system: all organisms; experiment: Toxicity of the extraction solvent octanol, shake flask growth; assay type: cell-based; details: 0.1 g/L and 3 g/L octanol
Description: as §1, §2

[5] = test system: P. putida; experiment: Shake flask growth (OD600) with supplementation of toxic substances; assay type: cell-based, Pseudomonas putida KT2440; details: after octanol addition, pH 7, shake flask
Description: as §1, §2

[6] = test system: E. coli; experiment: as above; assay type: cell-based, Escherichia coli K12; details: 3 g/L pAB, pH 7, shake flask
Description: as §1, §2

CCCCCCCCCCCCO [1-dodecanol]
miscibility in water ([1]; 1-dodecanol): 0.004 g/L

C=C(O[C@@H]1C=C(C(=O)O)C=C[C@H]1O)C(=O)O [chorismate]
Vmax [2]: 317.9 mU/mg

Nc1ccccc1C(=O)O [oAB, o-aminobenzoate]
growth inhibition [3]: growth was not inhibited

CCCCCCCCO [octanol]
growth (OD600) [4]: unable to grow
solubility in water ([1]; octanol): about 0.1 g/L
growth (OD600) [5]: minor growth activity

Nc1ccc(C(=O)O)cc1 [pAB, 4-aminobenzoate, reference compound]
growth (OD600) [6]: not inhibited
